These results are taken from patent US6500222B2, “Diureides and their use” (priority 1999, dated 2002).

For assay [1], the system named is mustard seedlings (Sinapis alba, 'Maxi'). Nature of the assay: Mustard seedling test on plant tolerance, growth and yield.
The next assay concerns ryegrass. Nature of the assay: Crop production experiment in Mitscherlich containers with ryegrass as test crop. Conditions: 2.4 g of N per container.
Setting [2] is: N fertilization 100 mg/container, DAT 13.
The mark [3] stands for this setting: N fertilization 100 mg/container, DAT 23.
The mark [4] stands for this setting: N fertilization 200 mg/container, DAT 13.
[5] abbreviates: N fertilization 200 mg/container, DAT 23.
The mark [6] stands for this setting: N fertilization 400 mg/container, DAT 13.
Setting [7] is: N fertilization 400 mg/container, DAT 23.

Regarding “bis(N′-potassium sulfamate)malonic acid diureide [IaB]”, the “"Greenness" (%) (N supply) 100% = dark green” value (shortened to “"Greenness" (%)”) is given as 70% in assay [1] (setting [2]); 30% in assay [1] (setting [3]); 80% in assay [1] (setting [4]); 85% in assay [1] (setting [5]); 85% in assay [1] (setting [6]); 85% in assay [1] (setting [7]). For the same substance, the FW yield stood at 7.1 g/container in assay [1] (setting [3]), 4.7 g/container in assay [1] (setting [5]) and 3.7 g/container in assay [1] (setting [7]). Moreover, the “N content in the DM (%)” value is 3.1% in assay [1] (setting [3]), 5.3% in assay [1] (setting [5]) and 6.6% in assay [1] (setting [7]). The “N uptake in the shoot” value in assay [1] (setting [3]) is reported as 46 mg/container; in assay [1] (setting [5]), 80 mg/container; in assay [1] (setting [7]), 90 mg/container.

Turning to malonic acid diureide [Compound 1A], the Dry-matter production is recorded as 5.7 g/container in the assay on ryegrass (day 16 post-fertilization); 2.5 g/container in the assay with ryegrass (day 30 post-fertilization); 3.8 g/container with ryegrass (day 45 post-fertilization); 3.1 g/container in the assay with ryegrass (day 58 post-fertilization); 5.4 g/container with ryegrass (day 78 post-fertilization); 6.3 g/container with ryegrass (day 100 post-fertilization). For the same substance, the Dry-matter production with ryegrass (day 125 post-fertilization) stood at 9.3 g/container; in the assay on ryegrass (day 174 post-fertilization), 7.2 g/container; with ryegrass (day 252 post-fertilization), 4.5 g/container. In addition, the Nitrogen uptake in the assay on ryegrass (day 16 post-fertilization) is 185 mg/container; in the assay on ryegrass (day 30 post-fertilization), 97 mg/container; in the assay with ryegrass (day 45 post-fertilization) it was 130 mg/container; with ryegrass (day 58 post-fertilization), 119 mg/container; in the assay on ryegrass (day 78 post-fertilization), 180 mg/container; with ryegrass (day 100 post-fertilization), 204 mg/container. For the same substance, the Nitrogen uptake in the assay on ryegrass (day 125 post-fertilization) worked out at 283 mg/container; with ryegrass (day 174 post-fertilization), 154 mg/container; in the assay on ryegrass (day 252 post-fertilization), 145 mg/container.

fumaric acid diureide [Compound 1C]: the Dry-matter production in the assay with ryegrass (day 16 post-fertilization) amounted to 4.2 g/container; with ryegrass (day 30 post-fertilization), 1.9 g/container; in the assay on ryegrass (day 45 post-fertilization), 2.1 g/container; in the assay on ryegrass (day 58 post-fertilization), 3.4 g/container; in the assay on ryegrass (day 78 post-fertilization), 3.3 g/container; in the assay on ryegrass (day 125 post-fertilization), 5.1 g/container. Moreover, the Nitrogen uptake is listed as 112 mg/container in the assay with ryegrass (day 16 post-fertilization); 60 mg/container in the assay on ryegrass (day 30 post-fertilization); 69 mg/container in the assay on ryegrass (day 45 post-fertilization); 108 mg/container in the assay on ryegrass (day 58 post-fertilization); 104 mg/container with ryegrass (day 78 post-fertilization); 138 mg/container with ryegrass (day 125 post-fertilization).

In the case of succinic acid diureide [Compound 1B], the Dry-matter production in the assay with ryegrass (day 16 post-fertilization) stood at 4 g/container; with ryegrass (day 30 post-fertilization), 1.7 g/container; with ryegrass (day 45 post-fertilization), 1.3 g/container; in the assay on ryegrass (day 58 post-fertilization), 2.2 g/container; in the assay on ryegrass (day 78 post-fertilization), 4.6 g/container; in the assay with ryegrass (day 125 post-fertilization), 9.6 g/container. Moreover, the Nitrogen uptake in the assay with ryegrass (day 16 post-fertilization) is reported as 114 mg/container; in the assay on ryegrass (day 30 post-fertilization) it was 50 mg/container; in the assay with ryegrass (day 45 post-fertilization) it was 36 mg/container; with ryegrass (day 58 post-fertilization), 69 mg/container; in the assay on ryegrass (day 78 post-fertilization), 161 mg/container; in the assay with ryegrass (day 125 post-fertilization), 281 mg/container.

On to “bis(N′-potassium sulfamate)succinic diureide [IaA]”, for which the “"Greenness" (%)” value in assay [1] (setting [2]), in assay [1] (setting [3]), in assay [1] (setting [4]), in assay [1] (setting [5]), in assay [1] (setting [6]) and in assay [1] (setting [7]) was 30% each time. The FW yield turned out to be 10.4 g/container in assay [1] (setting [3]), 10.4 g/container in assay [1] (setting [5]) and 10.6 g/container in assay [1] (setting [7]). In addition, the “N content in the DM (%)” value worked out at 1.5% in assay [1] (setting [3]), 1.7% in assay [1] (setting [5]) and 1.9% in assay [1] (setting [7]). Further, the “N uptake in the shoot” value in assay [1] (setting [3]) is reported as 27 mg/container; in assay [1] (setting [5]), 28 mg/container; in assay [1] (setting [7]), 29 mg/container.

For Urea [reference compound], the Dry-matter production was determined as 7.7 g/container with ryegrass (day 16 post-fertilization); 5.6 g/container in the assay on ryegrass (day 30 post-fertilization); 8.6 g/container in the assay on ryegrass (day 45 post-fertilization); 8.6 g/container in the assay on ryegrass (day 58 post-fertilization); 5.9 g/container in the assay on ryegrass (day 78 post-fertilization); 2.3 g/container in the assay on ryegrass (day 100 post-fertilization). Moreover, the Dry-matter production in the assay on ryegrass (day 125 post-fertilization) and with ryegrass (day 174 post-fertilization) was 1.4 g/container throughout. Moreover, the Nitrogen uptake was 480 mg/container in the assay with ryegrass (day 16 post-fertilization); 311 mg/container with ryegrass (day 30 post-fertilization); 404 mg/container in the assay with ryegrass (day 45 post-fertilization); 410 mg/container in the assay with ryegrass (day 58 post-fertilization); 127 mg/container with ryegrass (day 78 post-fertilization); 50 mg/container in the assay with ryegrass (day 100 post-fertilization). For the same substance, the Nitrogen uptake is 33 mg/container in the assay on ryegrass (day 125 post-fertilization) and 27 mg/container with ryegrass (day 174 post-fertilization). Moreover, the “"Greenness" (%)” value in assay [1] (setting [2]), in assay [1] (setting [3]), in assay [1] (setting [4]) and in assay [1] (setting [5]) was 100% each time. Besides, the FW yield in assay [1] (setting [3]) worked out at 19.6 g/container; in assay [1] (setting [5]), 1.6 g/container. For the same substance, the “N content in the DM (%)” value was 4.3% in assay [1] (setting [3]) and 6.5% in assay [1] (setting [5]). The “N uptake in the shoot” value in assay [1] (setting [3]) came to 84 mg/container; in assay [1] (setting [5]) it was 10 mg/container.
